Test results taken from patent US20230030886A1, “CHEMOTHERAPEUTIC DRUG IMPLANT” (EXTRUDED PHARMACEUTICALS LTD, priority 2019, published 2023).

System: primary GBM cells taken from eight patients with recurrent GBM
Assay: GBM cell cytotoxicity of IRN, TMZ and IRN+PVT, increasing concentrations, 5 days (MTT)
Format: cell-based, human
Description: TMZ, IRN and IRN+PVT were added at increasing concentrations up to 5 log nm to cultured primary GBM cells taken from eight patients with recurrent GBM. After 5 days of exposure an MTT assay was performed to assess % cell viability.

CCc1c2c(nc3ccc(OC(=O)N4CCC(N5CCCCC5)CC4)cc13)-c1cc3c(c(=O)n1C2)COC(=O)[C@]3(O)CC [IRN, irinotecan]
IC50 (Homo sapiens, 120 h, determined from FIG. 23, 5 days exposure, eight patient lines): 3.16 µM | response of the eight patient cell lines to treatment (up to 5 log nm, 5 days of exposure): Six of the eight patient cell lines responded
